Data published in article PMC6433232, “Targeting mitochondria in cancer therapy could provide a basis for the selective anti-cancer activity” (PLoS ONE, 2019).
Values joined by “and” are separate entries in the source; they are usually repeats but may differ in a detail not shown here. Equal values may be shown once. Read-outs that look alike come from different tables or passages of the source.

Key:
[1] = system: pancreatic cancer MIA PaCa-2 cells; assay: cells; conditions: Homo sapiens, MIA PaCa-2, read-out: EC50, μM MIA PaCa-2
Procedure: Fig 1 A, Structure of NSC130362. B, Dose response curve of NSC130362 in MIA PaCa-2 cells. Cells were pre-incubated with NSC130362 for 2 h followed by addition of ATO (5 μM) and incubation for an additional 24 h. At the end of the treatment, the ratio of dead cells was determined by a CellTiterGlo reagent.

[2] = system: human primary hepatocytes; assay: cells; conditions: Hepatocyte, read-out: EC50, μM Hepatocytes
From the text: We selected hepatocytes as normal cells because hepatocytes are mediate toxicity to multiple drugs and are used as a standard to assess toxicity of drugs in vitro [28]. […] For comparison with the standard of care, doxorubicin was also included in this analysis.

[3] = system: primary acute myeloid leukemia (AML) cells obtained from patients; assay: Kinase inhibitor library screening with and without NSC130362, primary AML cells; assay type: cell-based, Human
[4] = ratio of EC50 for inhibitor to EC50 for inhibitor/NSC130362 combination, NSC130362 10 μM, Screen N 1
[5] = ratio of EC50 for inhibitor to EC50 for inhibitor/NSC130362 combination, NSC130362 10 μM, Screen N 2
[6] = ratio of EC50 for inhibitor to EC50 for inhibitor/NSC130362 combination, NSC130362 10 μM, Screen N 3

Row | Compound | EC50 decrease, fold (Screen N 1) [3, 4] | EC50 decrease, fold (Screen N 2) [3, 5] | EC50 decrease, fold (Screen N 3) [3, 6] | further results
1 | CCNC1=CC(=O)c2ccccc2C1=O [compound 49] |  |  |  | EC50 [1]: > 90 µM; EC50 [2]: > 90 µM
2 | CC(C)NC1=C(Cl)C(=O)c2ccccc2C1=O [compound 10] |  |  |  | EC50 [1]: 69 µM; EC50 [2]: > 90 µM
3 | CC(=O)NC1=C(Cl)C(=O)c2ccccc2C1=O [compound 29] |  |  |  | EC50 [1]: 5.4 µM; EC50 [2]: 9.7 µM
4 | Nc1nc(Nc2ccc(S(N)(=O)=O)cc2)nn1C(=O)c1c(F)cccc1F [JNJ-7706621] | 3.7 fold | 1.0 fold | 0.182 fold | 
5 | CC(C)n1nc(-c2ccc3oc(N)nc3c2)c2c(N)ncnc21 [INK-128] | 0.0632 fold | 0.9 fold | 0.0858 fold | 
6 | JAK Inhibitor I | 0.847 fold | 1.0 fold | 46.2 fold | 
7 | COc1cc(N2CCC(N3CCN(C)CC3)CC2)ccc1Nc1ncc(Cl)c(Nc2ccccc2S(=O)(=O)C(C)C)n1 [NVP-TAE684] | 0.55 fold | 1.0 fold | 0.755 fold | 
8 | CC(C)(C)c1ccc(S(=O)(=O)/C=C/C#N)cc1 [Bay 11-7085] | 69.0 fold | 1.0 fold | 221.9 fold | 
9 | Nc1ccn([C@@H]2O[C@H](CO)[C@@H](O)[C@@H]2O)c(=O)n1 [Cytarabine] | 28.6 fold | 1.0 fold | 0.132 fold | 
10 | Nc1cccc2c1CN(C1CCC(=O)NC1=O)C2=O (stereo not drawn) [Lenalidomide] |  |  | 1.4 fold | 
11 | COc1ccc(C2=N[C@@H](c3ccc(Cl)cc3)[C@@H](c3ccc(Cl)cc3)N2C(=O)N2CCNC(=O)C2)c(OC(C)C)c1 [Nutlin 3a] | 0.1 fold | 1.0 fold | 0.9 fold | 
12 | CCN(CCO)CCCOc1ccc2c(Nc3cc(CC(=O)Nc4cccc(F)c4)[nH]n3)ncnc2c1 [Barasertib (AZD1152-HQPA)] | 1.0 fold | 1.0 fold | 642.8 fold | 
13 | CN(C)CC[C@H](CSc1ccccc1)Nc1ccc(S(=O)(=O)NC(=O)c2ccc(N3CCN(Cc4ccccc4-c4ccc(Cl)cc4)CC3)cc2)cc1[N+](=O)[O-] [ABT-737] | 5.4 fold | 1.0 fold | 0.000857 fold | 
14 | COc1cc(OC)c(/C=C/S(=O)(=O)Cc2ccc(OC)c(NCC(=O)O)c2)c(OC)c1 [ON-01910] |  | 1.0 fold |  | 
15 | CNC(=O)c1c(F)cccc1Nc1nc(Nc2cc3c(cc2OC)CCN3C(=O)CN(C)C)nc2[nH]ccc12 [GSK-1838705A] | 257.7 fold | 1.0 fold | 522.0 fold | 
16 | Cc1ccc(C(=O)Nc2ccc(CN3CCN(C)CC3)c(C(F)(F)F)c2)cc1C#Cc1cnc2cccnn12 [Ponatinib (AP24534)] |  |  |  | EC50 decrease, fold (Screen N 2) [3]: 0.9 fold and 1.1 fold
17 | CC(C)C[C@H](NC(=O)[C@H](Cc1ccccc1)NC(=O)c1cnccn1)B(O)O [Velcade] |  |  |  | EC50 decrease, fold (Screen N 1) [3]: 0.457 fold; EC50 decrease, fold (Screen N 2) [3]: 0.468 fold; EC50 decrease, fold (Screen N 3) [3]: 0.0645 fold
18 | N#CCNC(=O)c1ccc(-c2ccnc(Nc3ccc(N4CCOCC4)cc3)n2)cc1 [CYT387] | 0.117 fold | 1.0 fold | 320.1 fold | 
19 | Cn1cc(-c2ccc3nnc(C(F)(F)c4ccc5ncccc5c4)n3n2)cn1 [JNJ-38877605] | 7.6 fold | 1.0 fold | 0.00829 fold | 
20 | NC1(c2ccc(-c3nc4ccn5c(=O)[nH]nc5c4cc3-c3ccccc3)cc2)CCC1 [MK-2206] | 15.9 fold | 1.0 fold | 1.0 fold | 
21 | CN1CCN(c2ccc3nc(-c4c(N)c5c(F)cccc5[nH]c4=O)[nH]c3c2)CC1 [Dovitinib (CHIR-258)] | 2.6 fold | 1.0 fold | 96.7 fold | 
22 | Cc1ccc2nc(NC(=O)CSc3nc4c(c(=O)n3-c3ccccc3)SCC4)sc2c1 [IWP2] |  | 1.0 fold |  | 
23 | COc1cc(N2CCC(N3CCN(C)CC3)CC2)ccc1Nc1ncc(Cl)c(Nc2ccccc2P(C)(C)=O)n1 [Brigatininb (AP-26113)] | 0.0179 fold |  | 1.8 fold | 
24 | CC(C)NC[C@@H](C(=O)N1CCN(c2ncnc3c2[C@H](C)C[C@H]3O)CC1)c1ccc(Cl)cc1 [Ipatasertib (GDC-0068)] |  | 1.0 fold |  | 
25 | Cn1c(=O)n(-c2ccc(C(C)(C)C#N)cc2)c2c3cc(-c4cnc5ccccc5c4)ccc3ncc21 [BEZ235] | 4.0 fold | 0.7 fold | 8.8 fold | 
26 | O=C(Nc1cccc2cccnc12)c1ccc(N2C(=O)[C@@H]3[C@H](C2=O)[C@@H]2C=C[C@H]3C2)cc1 [IWR1] |  | 1.0 fold |  | 
27 | O=C(Nc1cccc(C(F)(F)F)c1)Nc1cc(S(=O)(=O)NC2CC2)ccc1-c1ccsc1 [AGI-6780] | 1.0 fold | 1.0 fold | 17.0 fold | 
28 | COc1cc2nccc(Oc3ccc(NC(=O)NC4CC4)c(Cl)c3)c2cc1C(N)=O [Lenvatinib] | 1.9 fold | 1.0 fold | 1.5 fold | 
29 | COc1cc2c(Oc3ccc4[nH]c(C)cc4c3F)ncnc2cc1OCCCN1CCCC1 [Cediranib (AZD2171)] | 8.3 fold | 1.0 fold | 0.00538 fold | 

The next lines start with results.

Row | EC50 decrease, fold (Screen N 1) [3, 4] | EC50 decrease, fold (Screen N 2) [3, 5] | EC50 decrease, fold (Screen N 3) [3, 6] | Compound | further results
30 |  | 0.8 fold |  | Cc1sc2c(c1C)C(c1ccc(Cl)cc1)=N[C@@H](CC(=O)Nc1ccc(O)cc1)c1nnc(C)n1-2 [OTX-015] | 
31 |  | 2.8 fold |  | Cc1nc(-c2cn3c(n2)-c2ccc(-c4cnn(C(C)(C)C(N)=O)c4)cc2OCC3)n(C(C)C)n1 [Taselisib (GDC-0032)] | 
32 | 0.245 fold | 1.0 fold | 0.7 fold | Clc1ccc(Nc2nnc(Cc3ccncc3)c3ccccc23)cc1 [Vatalanib (PTK787)] | 
33 | 1.0 fold | 1.0 fold | 1058.2 fold | NC(=O)c1ccc(-c2nc(-c3ccc4c(c3)OCO4)c(-c3ccccn3)[nH]2)cc1 [SB-431542] | 
34 | 6.5 fold | 1.0 fold | 1.0 fold | Oc1nc(-c2ccc(C(F)(F)F)cc2)nc2c1CSCC2 [XAV-939] | 
35 | 1.4 fold | 0.843 fold | 46.0 fold | CCOc1cc2ncc(C#N)c(Nc3ccc(F)c(Cl)c3)c2cc1NC(=O)/C=C/CN(C)C [Pelitinib (EKB-569)] | 
36 | 1.8 fold | 1.0 fold | 1.0 fold | Nc1nc(N)c2nc(-c3cccc(O)c3)c(-c3cccc(O)c3)nc2n1 [TG100-115] | 
37 | 7.5 fold | 1.0 fold | 0.9 fold | Cc1cc(Nc2cc(N3CCN(C)CC3)nc(Sc3ccc(NC(=O)C4CC4)cc3)n2)n[nH]1 [Tozasertib (VX-680)] | 
38 | 8.1 fold | 1.0 fold | 265.0 fold | NC(=O)c1cnc(N[C@@H]2CCCC[C@@H]2N)nc1Nc1cccc(-n2nccn2)c1 [PRT062607] | 
39 | 2.9 fold | 1.0 fold | 0.0543 fold | O=c1ncn2nc(Sc3ccc(F)cc3F)ccc2c1-c1c(Cl)cccc1Cl [VX-745] | 
40 | 0.2 fold | 0.4 fold | 68.5 fold | CC[C@@H]1C(=O)N(C)c2cnc(Nc3ccc(C(=O)N[C@H]4CC[C@H](N5CCN(CC6CC6)CC5)CC4)cc3OC)nc2N1C(C)C [Volasertib (BI-6727)] | 
41 | 10.9 fold | 4.4 fold | 1.0 fold | COCCn1c2c([n+](Cc3cnccn3)c1C)C(=O)c1ccccc1C2=O [YM-155] | 
42 | 1.0 fold | 1.0 fold |  | CCCS(=O)(=O)Nc1ccc(F)c(C(=O)c2c[nH]c3ncc(-c4ccc(Cl)cc4)cc23)c1F [Vemurafenib (PLX-4032)] | 
43 | 1.4 fold | 398.5 fold | 183.2 fold | CC(=O)Nc1cccc(-n2c(=O)n(C3CC3)c(=O)c3c(Nc4ccc(I)cc4F)n(C)c(=O)c(C)c32)c1 [Trametinib (GSK1120212)] | 
44 | 0.229 fold | 1.0 fold | 0.14 fold | CCS(=O)(=O)O.COC(=O)c1ccc2c(c1)NC(=O)/C2=C(\Nc1ccc(N(C)C(=O)CN2CCN(C)CC2)cc1)c1ccccc1 [Vargetef] | 
45 | 0.452 fold | 2.6 fold | 1089.9 fold | Oc1cccc(-c2nc(N3CCOCC3)c3oc4ncccc4c3n2)c1 [PI-103] | 
